Laboratory results published in patent US20110098296A1, “Thiazole And Oxazole Kinase Inhibitors” (priority 2007, published 2011).

How the values were obtained:
[1] = tested on: HT-29 tumor cells; test: Method C: Cell Growth Inhibition Assay (CellTiter-Glo), HT-29; format: cell-based; settings: Homo sapiens, HT-29, 72 h, 3 days, 4-parameter fit
In short: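 HT-29 and HN5 were grown in high-glucose DMEM with 10% FBS, SK-MEL-28 in EMEM with nonessential amino acids, sodium pyruvate and 10% FBS, and A375P F11s in RPMI with 10% FBS and sodium pyruvate. Cells (500/well) received 1:3 compound dilutions for 3 days, with CellTiter-Glo readout and 4-parameter IC50.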

[2] = tested on: Colo205 tumor cells; test: Method B: CellTiter-Glo Growth Inhibition Assay, Colo205; format: cell-based; settings: Homo sapiens, COLO 205, 72 h, 3 days
In short: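 Cells plated (BT474 3,000, HN5 500, Colo205 3,000 per well) in RPMI or DMEM with 10% FBS; compounds added next day, final DMSO 0.3%, then 3 days at 37° C, 5% CO2. Viability by CellTiter-Glo luminescence; percent inhibition versus vehicle, IC50 interpolated by nonlinear regression.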

IC50 [1] [nM] | IC50 [2] [nM] | SMILES
100 to 1000 | < 100 | Nc1nc(-c2cccc(C(=O)Nc3c(F)cccc3F)c2)c(-c2ccnc(Nc3cccc(CN4CCCC4)c3)n2)s1 [Example 77, 3-[2-Amino-5-(2-{[3-(1-pyrrolidinylmethyl)phenyl]amino}-4-pyrimidinyl)-1,3-thiazol-4-yl]-N-(2,6-difluorophenyl)benzamide]
100 to 1000 |  | CCc1nc(-c2cccc(NC(=O)c3c(F)cccc3F)c2)c(-c2ccnc(Nc3cccc(CN4CCCC4)c3)n2)s1 [Example 115, N-{3-[2-Ethyl-5-(2-{[3-(1-pyrrolidinylmethyl)phenyl]amino}-4-pyrimidinyl)-1,3-thiazol-4-yl]phenyl}-2,6-difluorobenzamide]
100 to 1000 |  | COc1cc(Nc2nccc(-c3sc(N)nc3-c3cccc(NC(=O)c4c(F)cccc4F)c3)n2)cc(OC)c1OC [Example 16, N-[3-(2-Amino-5-{2-[(3,4,5-trimethoxyphenyl)amino]pyrimidiN-4-yl}-1,3-thiazol-4-yl)phenyl]-2,6-difluorobenzamide]
 | > 1000 | Cc1nc(-c2cccc(NC(=O)c3cc(F)ccc3F)c2)c(-c2ccnc(Nc3ccc(OCCN(C)C)c(Cl)c3)n2)o1 [Example 142]
 | > 1000 | Cc1nc(-c2cccc(NC(=O)c3c(F)cccc3F)c2)c(-c2ccnc(Nc3ccc(OCCN(C)C)c(Cl)c3)n2)s1 [Example 103, N-[3-(5-{2-[(3-Chloro-4-{[2-(dimethylamino)ethyl]oxy}phenyl)amino]-4-pyrimidinyl}-2-methyl-1,3-thiazol-4-yl)phenyl]-2,6-difluorobenzamide]
100 to 1000 | 100 to 1000 | CCNc1nc(-c2cccc(NC(=O)C3CC3)c2)c(-c2ccnc(Nc3ccc(OCCN4CCCC4)c(Cl)c3)n2)s1 [Example 63, N-{3-[5-{2-[(3-Chloro-4-{[2-(1-pyrrolidinyl)ethyl]oxy}phenyl)amino]-4-pyrimidinyl}-2-(ethylamino)-1,3-thiazol-4-yl]phenyl}cyclopropanecarboxamide]
